Data on 3 compounds can be found in patent publication US20020123648A1, “Aqueous stable lysine solution” (AJINOMOTO CO., INC., priority 1999, published 2002).

Each structure is given as a SMILES string.

Data set [1] in a line: Solubility of lysine: suspension stirred 1 week at constant temperature, lysine analysed in supernatant. In kind it is physicochemical. To be noted: 20° C.; chloride ions at a molar ratio of 27% or less to the lysine (hydrochloric acid). The method, then:
70% lysine base solution obtained under (1) above, 35% hydrochloric acid and deionized water were used in the amounts shown in Table 1 below, respectively, to prepare 7 kinds of solutions. In these solutions, the lysine base crystals obtained under (2) above and the lysine hydrochloride.2H2O crystals obtained under (3) above were suspended respectively in the amounts shown in the same table, and then stirred for 1 week during which the temperature was kept at 20° C.
The crystals were removed from these suspensions, and the concentration of the chloride ions in each of the remaining solutions was analyzed by an ion chromatographic analyzer “Yokokawa IC7000 model”, and the concentration of lysine therein was analyzed by an amino acid analyzer “Hitachi L-8500 model”. […]
The crystals were removed from these suspensions, and the concentration of the chloride ions in each of the resulting solutions (supernatants) was analyzed by the ion chromatographic analyzer “Yokokawa IC7000 model”, and the concentration of the lysine therein was analyzed by the amino acid analyzer “Hitachi L-8500 model”. […]

For data set [2] the following is noted: storage at 50° C. for 6 weeks; cited from earlier work.
For data set [3] the following is noted: used in the same molar amount; cited from earlier work.

For `NCCCC[C@H](N)C(=O)O` [lysine], the “solubility of lysine compared with the case where the chloride ions are not contained (FIG. 1)” value in data set [1] is given as “increased”.

Consider `NCCCC[C@H](N)C(=O)O` [crystalline L-lysine, L-lysine], for which, in data set [2], the coloration after storage entry is reported as “evidently colored” and the “formation of by-products after storage” value was “confirmed”. For the compound `Cl.NCCCC[C@H](N)C(=O)O` [L-lysine monohydrochloride], the “action in a feeding experiment” value in data set [3] is recorded as “same action”.
